Experimental data published in PMC3563091 (Bioorganic & medicinal chemistry letters, 2012).

Target: CMG2 (Capillary Morphogenesis Gene protein 2) (Homo sapiens, UniProt P58335, R40C)
Assay type: binding

Chain of CMG2 (Capillary Morphogenesis Gene protein 2) (P58335 34-489 R40C limits assumed): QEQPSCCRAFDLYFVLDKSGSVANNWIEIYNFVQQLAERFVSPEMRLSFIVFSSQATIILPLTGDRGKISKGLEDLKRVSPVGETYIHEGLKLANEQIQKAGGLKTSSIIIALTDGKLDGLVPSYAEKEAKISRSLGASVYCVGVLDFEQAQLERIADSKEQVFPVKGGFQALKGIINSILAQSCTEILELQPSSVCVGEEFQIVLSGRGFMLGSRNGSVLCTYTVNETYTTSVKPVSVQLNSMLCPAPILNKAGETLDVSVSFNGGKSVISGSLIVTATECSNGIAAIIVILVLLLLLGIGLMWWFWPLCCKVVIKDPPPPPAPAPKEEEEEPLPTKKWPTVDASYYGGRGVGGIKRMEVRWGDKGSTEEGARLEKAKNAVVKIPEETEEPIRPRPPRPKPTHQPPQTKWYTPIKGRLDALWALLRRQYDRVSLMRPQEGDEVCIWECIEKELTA

Q: 7-O-methyl neolambertellin [compound 1] was tested. Which IC50 did it give?
A: The IC50 was 500 nM.
